# From ChEMBL document CHEMBL3112467, “In vitro phenotypic screening of 7-chloro-4-amino(oxy)quinoline derivatives as putative anti-Trypanosoma cruzi agents” (Bioorg Med Chem Lett, 2014)
# Assays:
# [1] = Cytotoxicity against mouse NCTC-929 cells after 48 hrs by resazurin staining-based fluorescence assay; type: cell-based; details: read-out: LC50
# [2] = test system: Trypanosoma cruzi; test: Antimicrobial activity against epimastigote stage of Trypanosoma cruzi CL Brener assessed as growth inhibition after 72 hrs by beta-galactosidase reporter gene assay; type: functional, organism-based
# [3] = test system: Trypanosoma cruzi; test: Antimicrobial activity against epimastigote stage of Trypanosoma cruzi CL Brener assessed as growth inhibition at […] after 72 hrs by beta-galactosidase reporter gene assay; type: functional; details: read-out: GI
# [4] = Selectivity index, ratio of LC50 for mouse NCTC-929 cells to IC50 for epimastigote stage of Trypanosoma cruzi CL Brener; type: toxicity, cell-based; details: read-out: Ratio LC50/IC50
# [5] = Cytotoxicity against mouse NCTC-929 cells at […] after 48 hrs by resazurin staining-based fluorescence assay; type: cell-based; details: read-out: INH
# [6] = test system: Trypanosoma cruzi; test: Antimicrobial activity against amastigote stage of Trypanosoma cruzi CL Brener infected in mouse NCTC-929 cells assessed as growth inhibition at 1 uM after 7 days by beta-galactosidase reporter gene assay; type: functional; details: NCTC-929, 168 h, read-out: GI
# [7] = test system: Trypanosoma cruzi; test: Antimicrobial activity against amastigote stage of Trypanosoma cruzi CL Brener infected in mouse NCTC-929 cells assessed as growth inhibition at 8 uM after 7 days by beta-galactosidase reporter gene assay; type: functional; details: NCTC-929, 168 h, read-out: GI
# [8] = test system: Trypanosoma cruzi; test: Antimicrobial activity against amastigote stage of Trypanosoma cruzi CL Brener infected in mouse NCTC-929 cells assessed as growth inhibition at 16 uM after 7 days by beta-galactosidase reporter gene assay; type: functional; details: NCTC-929, 168 h, read-out: GI
# [9] = test system: Trypanosoma cruzi; test: Antimicrobial activity against amastigote stage of Trypanosoma cruzi CL Brener infected in mouse NCTC-929 cells assessed as growth inhibition at 4 uM after 7 days by beta-galactosidase reporter gene assay; type: functional; details: NCTC-929, 168 h, read-out: GI
# [10] = test system: Trypanosoma cruzi; test: Antimicrobial activity against amastigote stage of Trypanosoma cruzi CL Brener infected in mouse NCTC-929 cells assessed as growth inhibition at 0.5 uM after 7 days by beta-galactosidase reporter gene assay; type: functional; details: NCTC-929, 168 h, read-out: GI
# [11] = in vitro; details: mouse, NCTC-929 cells
# Description: Selectivity index, ratio of LC50 for mouse NCTC-929 cells to IC50 for amastigote stage of Trypanosoma cruzi CL Brener infected in mouse NCTC-929 cells
# [12] = test system: Trypanosoma cruzi; test: Antimicrobial activity against amastigote stage of Trypanosoma cruzi CL Brener infected in mouse NCTC-929 cells assessed as growth inhibition at 2 uM after 7 days by beta-galactosidase reporter gene assay; type: functional; details: NCTC-929, 168 h, read-out: GI
# [13] = test system: Trypanosoma cruzi; test: Antimicrobial activity against amastigote stage of Trypanosoma cruzi CL Brener infected in mouse NCTC-929 cells assessed as growth inhibition at 32 uM after 7 days by beta-galactosidase reporter gene assay; type: functional; details: NCTC-929, 168 h, read-out: GI
# [14] = test system: Trypanosoma cruzi; test: Antimicrobial activity against amastigote stage of Trypanosoma cruzi CL Brener infected in mouse NCTC-929 cells assessed as growth inhibition after 7 days by beta-galactosidase reporter gene assay; type: functional, organism-based; details: NCTC-929, 168 h
structure (smiles),measurement,setting,value
O=C1CSC(c2ccc3c(c2)OCO3)N1CCNc1ccnc2cc(Cl)ccc12 (stereo unspecified),CC50 at 48 h,[1],19.5 µM
same,IC50,[2],6.84 µM
same,inhibition of growth at […],[3],84.3%
same,selectivity ratio,[4],2.85
Clc1ccc2c(NCc3ccccc3)ccnc2c1,CC50 at 48 h,[1],2.28 µM
same,IC50,[2],6.55 µM
same,inhibition of growth at […],[3],95.1%
same,selectivity ratio,[4],3.71
same,"cytotoxicity at 48 h, […]",[5],71.4%
O=C(Cn1ccnc1[N+](=O)[O-])NCc1ccccc1 [BENZNIDAZOLE],inhibition of growth at 1 µM,[6],55.6%
same,inhibition of growth at 8 µM,[7],96.6%
same,CC50 at 48 h,[1],> 256 µM
same,inhibition of growth at 16 µM,[8],100%
same,inhibition of growth at 4 µM,[9],74.7%
same,inhibition of growth at 0.5 µM,[10],41.6%
same,inhibition of growth at […],[3],82%
same,selectivity ratio,[11],> 320
same,inhibition of growth at 2 µM,[12],64.4%
same,selectivity ratio,[4],> 9.44
same,"cytotoxicity at 48 h, […]",[5],17.4%
same,inhibition of growth at 32 µM,[13],100%
CC1CS(=O)(=O)CCN1/N=C/c1ccc([N+](=O)[O-])o1 (stereo unspecified) [NIFURTIMOX],inhibition of growth at 1 µM,[6],100%
same,inhibition of growth at 8 µM,[7],100%
same,inhibition of growth at 16 µM,[8],100%
same,inhibition of growth at 4 µM,[9],100%
same,inhibition of growth at 0.5 µM,[10],96.5%
same,inhibition of growth at […],[3],100%
same,IC50,[14],< 0.5 µM
same,inhibition of growth at 2 µM,[12],100%
same,"cytotoxicity at 48 h, […]",[5],26.8%
same,inhibition of growth at 32 µM,[13],100%
